Active and inactive are the calls of the source. The rule behind the calls is not given here.
Experiments:
[1] = Downregulation of HDAC10 protein expression in human MDA-MB-231 cells assessed as fold change at 0.05 uM incubated for 24 hrs by immunoblotting analysis (reference value: 1); assay type: functional
[2] = Downregulation of HDAC4 protein expression in human NCI-H1975 cells assessed as fold change at 0.1 uM incubated for 24 hrs by immunoblotting analysis (reference value: 1); assay type: functional
[3] = Toxicity in athymic nude BALB/c mouse xenografted with human MDA-MB-231 cells assessed as effect on BUN level in serum at 3 mg/kg, ip administered 5 times a week for 7 weeks; assay type: organism-based; details: in vivo, 1176 h
[4] = target: Histone deacetylase 5 (Homo sapiens, UniProt Q9UQL6); assay: Inhibition of recombinant human HDAC5 using acetylated luminogenic substrate incubated for 10 mins by ultra-glo recombinant firefly luciferase based luminescence assay
[5] = Downregulation of HDAC10 protein expression in human NCI-H1975 cells assessed as fold change at 0.1 uM incubated for 24 hrs by immunoblotting analysis (reference value: 1); assay type: functional
[6] = Downregulation of HDAC3 protein expression in human MDA-MB-231 cells assessed as fold change at 0.05 uM incubated for 24 hrs by immunoblotting analysis (reference value: 1); assay type: functional
[7] = Downregulation of HDAC3 protein expression in human NCI-H1975 cells assessed as fold change at 0.05 uM incubated for 24 hrs by immunoblotting analysis (reference value: 1); assay type: functional
[8] = Effect on HDAC5 protein expression in human MDA-MB-231 cells assessed as fold change at 0.05 uM incubated for 24 hrs by immunoblotting analysis (reference value: 1); assay type: functional
[9] = system: NCI-H1975; assay: Antitumor activity against human NCI-H1975 cells xenografted in athymic nude BALB/c mouse assessed as cell apoptosis in tumor region at 6 mg/kg, ip administered 5 times a week for 3 weeks and measured on day 22 by TUNEL assay; assay type: functional, organism-based; details: time 22.0 day
[10] = Downregulation of HDAC3 protein expression in human MDA-MB-231 cells assessed as fold change at 0.1 uM incubated for 24 hrs by immunoblotting analysis (reference value: 1); assay type: functional
[11] = Toxicity in athymic nude BALB/c mouse xenografted with human NCI-H1975 cells assessed as effect on ALT level at 6 mg/kg, ip administered 5 times a week for 3 weeks and measured on day 22; assay type: organism-based; details: in vivo, 528 h, time 22 day
[12] = target: Histone deacetylase 4 (Homo sapiens, UniProt P56524); assay: Inhibition of recombinant human HDAC4 using acetylated luminogenic substrate incubated for 10 mins by ultra-glo recombinant firefly luciferase based luminescence assay
[13] = Toxicity in athymic nude BALB/c mouse xenografted with human MDA-MB-231 cells assessed as effect on ALT level in serum at 3 mg/kg, ip administered 5 times a week for 7 weeks; assay type: organism-based; details: in vivo, 1176 h
[14] = system: MDA-MB-231; assay: Cytotoxicity against human MDA-MB-231 cells assessed as inhibition of cell growth incubated for 48 hrs by Celltiter-glo assay; assay type: functional, cell-based; details: MDA-MB-231, 48 h
[15] = Downregulation of HDAC1 protein expression in human MDA-MB-231 cells assessed as fold change at 0.1 uM incubated for 24 hrs by immunoblotting analysis (reference value: 1); assay type: functional
[16] = Toxicity in athymic nude BALB/c mouse xenografted with human NCI-H1975 cells assessed as effect on creatinine level at 6 mg/kg, ip administered 5 times a week for 3 weeks and measured on day 22; assay type: organism-based; details: in vivo, 528 h, time 22 day
[17] = target: T1, Histone deacetylase 8 (Homo sapiens, UniProt Q9BY41); assay: Inhibition of recombinant human HDAC8 using acetylated luminogenic substrate incubated for 10 mins by ultra-glo recombinant firefly luciferase based luminescence assay
T1 sequence (Q9BY41 whole entry): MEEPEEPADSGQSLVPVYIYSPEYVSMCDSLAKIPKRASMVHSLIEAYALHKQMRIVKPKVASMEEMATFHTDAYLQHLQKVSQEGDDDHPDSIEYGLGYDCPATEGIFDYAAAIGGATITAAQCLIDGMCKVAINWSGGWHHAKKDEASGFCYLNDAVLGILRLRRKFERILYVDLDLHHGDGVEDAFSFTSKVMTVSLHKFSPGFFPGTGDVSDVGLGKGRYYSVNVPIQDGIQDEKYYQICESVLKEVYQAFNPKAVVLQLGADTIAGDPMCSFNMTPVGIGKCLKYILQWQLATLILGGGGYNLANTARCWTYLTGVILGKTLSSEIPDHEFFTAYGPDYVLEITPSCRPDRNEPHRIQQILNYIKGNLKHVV

[18] = Effect on HDAC5 protein expression in human NCI-H1975 cells assessed as fold change at 0.05 uM incubated for 24 hrs by immunoblotting analysis (reference value: 1); assay type: functional
[19] = Effect on HDAC11 protein expression in human NCI-H1975 cells assessed as fold change at 0.1 uM incubated for 24 hrs by immunoblotting analysis (reference value: 1); assay type: functional
[20] = system: MDA-MB-231; assay: Antitumor activity against human MDA-MB-231 cells xenografted in athymic nude BALB/c mouse assessed as average tumor size at 3 mg/kg, ip administered 5 times a week for 7 weeks and measured on day 47 (reference value: 15.4 +/- 5.3 mm3); assay type: functional; details: time 47 day
[21] = Effect on HDAC2 protein expression in human MDA-MB-231 cells assessed as fold change at 0.1 uM incubated for 24 hrs by immunoblotting analysis (reference value: 1); assay type: functional
[22] = Effect on HDAC2 protein expression in human MDA-MB-231 cells assessed as fold change at 0.05 uM incubated for 24 hrs by immunoblotting analysis (reference value: 1); assay type: functional
[23] = Downregulation of HDAC7 protein expression in human MDA-MB-231 cells assessed as fold change at 0.05 uM incubated for 24 hrs by immunoblotting analysis (reference value: 1); assay type: functional
[24] = system: NCI-H1975; assay: Antitumor activity against human NCI-H1975 cells xenografted in athymic nude BALB/c mouse assessed as reduction in tumor growth at 6 mg/kg, ip administered 5 times a week for 3 weeks by vernier caliper method; assay type: functional, organism-based
[25] = Effect on HDAC4 protein expression in human MDA-MB-231 cells assessed as fold change at 0.05 uM incubated for 24 hrs by immunoblotting analysis (reference value: 1); assay type: functional
[26] = Downregulation of HDAC6 protein expression in human MDA-MB-231 cells assessed as fold change at 0.05 uM incubated for 24 hrs by immunoblotting analysis (reference value: 1); assay type: functional
[27] = Effect on HDAC4 protein expression in human MDA-MB-231 cells assessed as fold change at 0.1 uM incubated for 24 hrs by immunoblotting analysis (reference value: 1); assay type: functional
[28] = target: Histone deacetylase 1 (Homo sapiens, UniProt Q13547); assay: Inhibition of recombinant human HDAC1 using acetylated luminogenic substrate incubated for 10 mins by ultra-glo recombinant firefly luciferase based luminescence assay
[29] = Downregulation of HDAC2 protein expression in human NCI-H1975 cells assessed as fold change at 0.05 uM incubated for 24 hrs by immunoblotting analysis (reference value: 1); assay type: functional

Chain of Histone deacetylase 5 (Q9UQL6 whole entry): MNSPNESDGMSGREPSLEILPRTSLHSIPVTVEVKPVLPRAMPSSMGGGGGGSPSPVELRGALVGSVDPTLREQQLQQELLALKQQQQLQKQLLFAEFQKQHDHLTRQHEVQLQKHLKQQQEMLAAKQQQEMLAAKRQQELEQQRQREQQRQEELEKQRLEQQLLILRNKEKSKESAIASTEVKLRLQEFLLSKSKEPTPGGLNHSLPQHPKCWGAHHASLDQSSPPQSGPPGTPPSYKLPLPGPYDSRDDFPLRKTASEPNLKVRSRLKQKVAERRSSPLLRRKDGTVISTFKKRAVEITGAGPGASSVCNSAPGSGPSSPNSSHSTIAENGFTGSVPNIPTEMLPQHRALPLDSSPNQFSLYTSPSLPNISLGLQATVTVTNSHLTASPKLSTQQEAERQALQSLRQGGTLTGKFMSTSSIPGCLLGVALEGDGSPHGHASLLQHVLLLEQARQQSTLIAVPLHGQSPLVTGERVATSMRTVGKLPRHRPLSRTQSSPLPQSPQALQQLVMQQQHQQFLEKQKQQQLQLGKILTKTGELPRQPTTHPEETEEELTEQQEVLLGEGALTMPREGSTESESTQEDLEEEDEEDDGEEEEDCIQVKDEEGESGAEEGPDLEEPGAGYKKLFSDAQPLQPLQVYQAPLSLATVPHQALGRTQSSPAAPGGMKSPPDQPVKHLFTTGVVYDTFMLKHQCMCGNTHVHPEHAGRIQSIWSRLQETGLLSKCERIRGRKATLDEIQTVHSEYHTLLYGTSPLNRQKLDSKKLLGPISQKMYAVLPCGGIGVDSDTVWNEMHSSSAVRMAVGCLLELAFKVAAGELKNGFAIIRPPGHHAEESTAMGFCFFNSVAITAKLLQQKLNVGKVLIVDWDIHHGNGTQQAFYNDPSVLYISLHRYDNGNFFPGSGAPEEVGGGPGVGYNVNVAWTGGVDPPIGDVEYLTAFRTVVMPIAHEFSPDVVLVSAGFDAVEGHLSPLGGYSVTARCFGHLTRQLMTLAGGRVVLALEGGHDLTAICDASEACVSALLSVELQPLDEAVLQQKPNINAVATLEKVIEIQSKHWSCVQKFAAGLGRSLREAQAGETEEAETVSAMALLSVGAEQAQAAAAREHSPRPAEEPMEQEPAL
Chain of Histone deacetylase 1 (Q13547 whole entry): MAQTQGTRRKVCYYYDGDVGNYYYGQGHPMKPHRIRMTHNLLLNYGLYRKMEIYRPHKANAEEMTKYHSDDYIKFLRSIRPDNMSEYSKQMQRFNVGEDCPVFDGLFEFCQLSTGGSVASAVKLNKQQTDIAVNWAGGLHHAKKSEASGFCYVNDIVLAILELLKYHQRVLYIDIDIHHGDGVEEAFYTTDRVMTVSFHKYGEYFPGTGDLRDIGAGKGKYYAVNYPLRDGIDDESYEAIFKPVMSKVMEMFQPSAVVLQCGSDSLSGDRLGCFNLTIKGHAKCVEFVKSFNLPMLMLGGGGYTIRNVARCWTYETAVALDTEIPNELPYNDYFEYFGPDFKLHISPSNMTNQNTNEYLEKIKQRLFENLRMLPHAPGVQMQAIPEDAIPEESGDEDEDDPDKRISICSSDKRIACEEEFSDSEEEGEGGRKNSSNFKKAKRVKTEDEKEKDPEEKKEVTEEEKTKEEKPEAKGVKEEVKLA
Chain of Histone deacetylase 4 (P56524 whole entry): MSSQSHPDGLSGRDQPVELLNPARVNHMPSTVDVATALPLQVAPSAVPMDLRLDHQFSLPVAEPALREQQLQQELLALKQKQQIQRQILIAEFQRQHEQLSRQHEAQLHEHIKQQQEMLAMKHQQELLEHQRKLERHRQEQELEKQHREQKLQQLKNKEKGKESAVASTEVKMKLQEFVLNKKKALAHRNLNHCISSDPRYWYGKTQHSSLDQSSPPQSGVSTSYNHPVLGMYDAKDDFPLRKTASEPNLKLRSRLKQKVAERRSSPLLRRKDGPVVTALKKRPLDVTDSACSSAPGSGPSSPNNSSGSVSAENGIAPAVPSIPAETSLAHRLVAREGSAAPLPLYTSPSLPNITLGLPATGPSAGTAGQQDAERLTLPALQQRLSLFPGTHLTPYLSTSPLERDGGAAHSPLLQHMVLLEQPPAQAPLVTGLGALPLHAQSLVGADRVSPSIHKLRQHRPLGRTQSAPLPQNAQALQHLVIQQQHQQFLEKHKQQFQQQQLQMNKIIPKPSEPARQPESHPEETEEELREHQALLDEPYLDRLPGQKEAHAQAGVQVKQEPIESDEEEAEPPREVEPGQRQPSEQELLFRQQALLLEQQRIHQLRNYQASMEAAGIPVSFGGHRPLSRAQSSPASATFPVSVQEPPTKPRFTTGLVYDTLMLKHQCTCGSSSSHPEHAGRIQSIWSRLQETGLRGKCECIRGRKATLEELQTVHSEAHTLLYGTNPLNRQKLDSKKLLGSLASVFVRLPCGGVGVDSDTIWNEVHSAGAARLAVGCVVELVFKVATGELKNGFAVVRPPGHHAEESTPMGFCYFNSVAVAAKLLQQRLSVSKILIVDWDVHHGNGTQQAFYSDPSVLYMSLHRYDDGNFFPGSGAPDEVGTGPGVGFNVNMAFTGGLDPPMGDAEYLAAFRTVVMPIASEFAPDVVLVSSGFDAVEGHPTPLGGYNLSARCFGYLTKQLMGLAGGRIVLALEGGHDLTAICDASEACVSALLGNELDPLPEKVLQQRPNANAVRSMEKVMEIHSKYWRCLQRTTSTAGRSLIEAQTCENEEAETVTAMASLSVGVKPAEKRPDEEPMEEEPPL

IC50 [4]: > 1000 nM | IC50 [12]: > 1000 nM | IC50 [17]: 138 nM | IC50 [28]: 5.1 nM
SMILES: CCOc1ccc(-c2nc(C(=O)NCc3ccc(C(=O)NO)cc3)c3[nH]c(=O)n(-c4cccnc4OC)c3n2)cn1
fold change (FC) [1]: 0.89 | fold change (FC) [2]: 0.6 | Activity [3]: Non-Toxic | fold change (FC) [5]: 0.9 | fold change (FC) [6]: 0.82 | fold change (FC) [7]: 0.82 | fold change (FC) [8]: 1.16 | Activity [9]: Active | fold change (FC) [10]: 0.65 | Activity [11]: Non-Toxic | Activity [13]: Non-Toxic | IC50 [14]: 510 nM | fold change (FC) [15]: 0.88 | Activity [16]: Non-Toxic | fold change (FC) [18]: 2.38 | fold change (FC) [19]: 1.85 | Activity [20]: 1.7 mm3 | fold change (FC) [21]: 1.25 | fold change (FC) [22]: 1.18 | fold change (FC) [23]: 0.77 | Activity [24]: Active | fold change (FC) [25]: 1.15 | fold change (FC) [26]: 0.47 | fold change (FC) [27]: 1.01 | fold change (FC) [29]: 0.77
